Reference: article PMC5773487, “Harnessing insulin- and leptin-induced oxidation of PTP1B for therapeutic development” (Nature Communications, 2018)
“Also recorded” adds a separate entry of the source. Blank lines part the entries; values can stand above or below the molecule they belong to.

Experiments:
reduced PTP1B = molecular target: T1, reduced PTP1B (Homo sapiens, UniProt P18031); assay: phosphatase activity of reduced PTP1B, DiFMUP substrate; assay type: biochemical
T1 construct: Purified PTP1B (1–321) (100 nM) was mixed with increasing concentrations of H2O2; 6xHis (C); made in house; host or cells: E. coli BL21 (DE3)-RIL
T1 sequence (P18031 1-321): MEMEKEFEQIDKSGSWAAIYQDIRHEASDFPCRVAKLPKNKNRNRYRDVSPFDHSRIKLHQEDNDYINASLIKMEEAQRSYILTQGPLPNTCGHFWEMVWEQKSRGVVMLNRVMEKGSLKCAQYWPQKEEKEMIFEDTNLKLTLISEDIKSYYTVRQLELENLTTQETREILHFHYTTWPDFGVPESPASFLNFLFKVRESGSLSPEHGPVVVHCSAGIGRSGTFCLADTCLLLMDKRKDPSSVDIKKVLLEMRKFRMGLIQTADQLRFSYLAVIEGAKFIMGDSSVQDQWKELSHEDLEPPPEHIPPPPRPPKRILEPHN
Experimental: Fig. 4 Identification and characterization of small molecules that mimic the effect of scFv45. a Reversibly oxidized PTP1B (PTP1B-OX) was generated by incubation with H2O2 in vitro, desalted, then assayed (20 nM) in the presence and absence of individual members of the LOPAC library. In the right panel, each dot represents an activity measurement. […] Data are representative of at least two independent experiments (n = 2). b Increasing concentration of sanguinarine was tested against reduced (circle) and oxidized (square) forms of PTP1B, using DiFMUP as substrate. c Increasing concentration of levamisole was tested against reduced (circle) and oxidized (square) PTP1B, using DiFMUP as substrate. d PTP1B-OX (200 nM) was incubated with sanguinarine (25 µM) for 5 min and the complex was diluted 100-fold and the activity was monitored for 120 min continuously. e PTP1B-OX (200 nM) was incubated with levamisole (40 µM) for 5 min and the complex was diluted 100-fold and the activity was monitored for 120 min continuously. f Increasing concentration of chelerythrine, an analog of sanguinarine, was tested against reduced (circle) and oxidized (square) forms of PTP1B, using DiFMUP as substrate. […] Individual data points represent the mean obtained from three separate experiments (n = 3; b–g)
Purified PTP1B (1–321) (100 nM) was mixed with increasing concentrations of H2O2 (0.05–100 mM) in phosphatase assay buffer (50 mM HEPES, pH 7.0, 100 mM NaCl, 0.1% BSA) at room temperature for 5 min. From this reaction mixture PTP1B (10 nM) was used to monitor phosphatase activity using DiFMUP as the substrate, with or without 5 mM TCEP. Activity of each sample was compared to that of the untreated PTP1B in the presence of 5 mM TCEP.

PTP1B-OX = molecular target: T2, PTP1B-OX (Homo sapiens, UniProt P18031); assay: reduction and reactivation of reversibly oxidized PTP1B by TCEP, DiFMUP substrate; assay type: biochemical
T2 construct: Purified PTP1B (1–321) (100 nM) was mixed with increasing concentrations of H2O2; 6xHis (C); made in house; host or cells: E. coli BL21 (DE3)-RIL
T2 sequence (P18031 1-321): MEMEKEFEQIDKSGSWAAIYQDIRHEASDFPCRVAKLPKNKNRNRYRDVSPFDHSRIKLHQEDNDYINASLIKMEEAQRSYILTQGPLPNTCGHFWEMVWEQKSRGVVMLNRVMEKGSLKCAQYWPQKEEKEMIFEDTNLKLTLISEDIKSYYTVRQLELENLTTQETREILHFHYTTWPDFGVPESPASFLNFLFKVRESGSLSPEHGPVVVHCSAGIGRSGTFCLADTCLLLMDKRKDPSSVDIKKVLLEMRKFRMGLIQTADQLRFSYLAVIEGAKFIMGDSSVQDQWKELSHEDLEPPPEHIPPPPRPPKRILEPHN

[1] = system: high fat diet-fed C57Bl6/J mice; assay: body weight, glucose and insulin tolerance tests in diet-fed mice; assay type: in vivo; details: for glucose tolerance (GTT) / insulin sensitivity (ITT): HFD fed 14-week-old male mice; for glucose tolerance (GTT): D-glucose 2 mg g−1; for insulin sensitivity (ITT): insulin 0.75 mU g−1
Experimental: Animal experiments were performed according to protocols approved by the Institutional Animal Use and Care Committee of Cold Spring Harbor laboratory. Ten week-old male C57bl6/J mice fed chow diet or high fat diet (D12492) were acclimatized for 10 days under standard conditions before experiments. Mice were intraperitoneally (i.p.) injected once daily with vehicle, 3 mg kg^−1 of chelerythrine or 3 mg kg^−1 of protopine for 30 days. Mice were killed after 6 h of fasting, and serum samples were collected to measure the metabolic parameters and tissue samples were collected for studying changes in signaling. No animals were excluded from the analysis.
Glucose in tail blood was measured using a glucometer (One-Touch Basic; Lifescan, CA). For glucose tolerance tests (GTTs), mice were fasted for 10 h and then injected with 20% D-glucose (2 mg g^−1 body weight) and the blood glucose was monitored immediately before and at 15, 30, 60, and 120 min following the injection. For insulin tolerance tests (ITTs), 4 h fasted animals were given insulin (0.75 mU g^−1) and blood glucose was measured immediately before and at 30, 60, and 120 min post-injection. Statistical analysis was performed using ANOVA for both GTT and ITT.

[2] = system: insulin signaling in 293T cells; assay: insulin signaling in 293T cells (immunoblot); assay type: cell-based; details: for insulin-induced activation of AKT (pThr308) / insulin-induced phosphorylation of insulin receptor β-subunit (IR-β): 293T cells, compound 2 μM 1 h, insulin 25 nM
Experimental: To study the effect of chelerythrine and protopine on insulin signaling we used 293T cells (ATCC) and cultured in DMEM containing 10% FBS. For insulin signaling, cells were serum starved for 16 h and then treated with chelerythrine (2 µM) or protopine (2 µM) for 1 h. Following which, cells were treated with 25 nM insulin for various times (0, 5, 10, 20 min) at 37 °C. Cells were washed with PBS and lysed in de-gassed RIPA lysis buffer (25 mM HEPES pH 7.5, 150 mM NaCl, 0.25% Deoxychloate, 10% Glycerol, 25 mM NaF, 10 mM MgCl2, 1 mM EDTA, 1% Triton X-100, 0.5 mM PMSF, 10 mM Benzamidine, cOmplete protease inhibitor cocktail (Roche)). Soluble proteins were harvested by centrifugation at 13,000×g for 10 min at 4 °C and quantitated. Total proteins in the cell lysates were separated by SDS-PAGE and tyrosyl phosphorylation of the IR-β subunit and downstream AKT activation was monitored. To test the effect of suppressing H2O2 levels on the function of the compounds, catalase was ectopically expressed in cells for 24 h. Following which, the cells were treated with the compounds as mentioned above. […] Catalase expression was detected in the cell samples with a rabbit polyclonal antibody (Abcam, ab52477).
Mammalian expression plasmids used in this study were as follows: pCMV-FLAG and pCMV-FLAG-PTP1B (wt and -mut2). Empty vector, FLAG-PTP1B-wt, or FLAG-PTP1B-mut2 were transfected into 293T cells for 24 h, following which, cells were serum starved for 8 h and then treated with chelerythrine (2 µM) for 1 h. Subsequently, cells were treated with 10 nM insulin for various times (0, 10, 20 min) at 37 °C. Cells were washed with PBS and lysed in de-gassed RIPA lysis buffer (25 mM HEPES pH 7.5, 150 mM NaCl, 0.25% Deoxycholate, 10% Glycerol, 25 mM NaF, 10 mM MgCl2, 1 mM EDTA, 1% Triton X-100, 0.5 mM PMSF, 10 mM Benzamidine, cOmplete protease inhibitor cocktail (Roche)). Soluble proteins were harvested by centrifugation at 13,000×g for 10 min at 4 °C and quantitated. Total proteins in the cell lysates were separated by SDS-PAGE and tyrosyl phosphorylation of the IR-β subunit was analyzed by immunoblotting.

Molecule: COc1ccc2c(c[n+](C)c3c4cc5c(cc4ccc23)OCO5)c1OC [chelerythrine]
inhibition of the reduced form of PTP1B (reduced PTP1B): no apparent inhibition; also recorded: did not inhibit | reversibility of PTP1B-OX inhibition (PTP1B-OX; complex diluted 100-fold, activity monitored 120 min): reversible | glucose tolerance (GTT) [1]: improved | insulin sensitivity (ITT) [1]: improved | change in body weight, chow diet ([1]; chow diet-fed mice, 3 mg kg−1 i.p. once daily): no significant change | decrease in body weight ([1]; high fat diet-fed mice, 3 mg kg−1 i.p. once daily): ~ 3% | basal signaling in the absence of insulin or leptin [2]: no impact | stimulatory effect on IR-β phosphorylation and AKT activation upon catalase overexpression ([2]; 293T cells expressing catalase, 2 μM): ablated | insulin-induced activation of AKT (pThr308) [2]: enhanced | insulin-induced phosphorylation of insulin receptor β-subunit (IR-β) [2]: enhanced and sustained phosphorylation | insulin signaling in cells expressing PTP1B-mut2 ([2]; 293T, 2 μM, insulin 10 nM): insensitive | insulin signaling in control and PTP1B-wt expressing cells ([2]; 293T, 2 μM, insulin 10 nM): elevated insulin signaling | observed cellular efficacy ([2]; reviewer's remark in peer review file): < 2 µM

Molecule: CN1CCc2cc3c(cc2C(=O)Cc2ccc4c(c2C1)OCO4)OCO3 [protopine]
inhibition of the reduced form of PTP1B (reduced PTP1B): did not inhibit; also recorded: ineffective | weight loss in high fat diet-fed mice ([1]; 3 mg kg−1 i.p. once daily, in words): not observed | glucose tolerance (GTT) [1]: did not improve | insulin sensitivity (ITT) [1]: did not improve | insulin-induced activation of AKT (pThr308) [2]: no significant effect | insulin-induced phosphorylation of insulin receptor β-subunit (IR-β) [2]: no significant effect

Ki (PTP1B-OX; intrabodies, phosphatase activity, read-out: Ki against oxidized PTP1B-wt): 10 nM
B1: scFv45: recombinant conformation-sensor single-chain variable fragment antibody recognizing oxidized PTP1B (antibody, V domains shown)
VH: TVTLDESGGGLQAPGGALSLVCKASGFTFSSYDMGWIRQAPGKGLEYVAGITDNGRYASYGSAVDGRATISRDNGQSSVRLQLNNLRAEDTGTYYCARDDGSGWTGNSIDAWGHGTEVIVSE
VL: ALTQPSSVSANPGGTVKITCSGSSSAYGYGWYQQKSPGSAPVTVIYNNNKRPSNIPSRFSGSKSGSTGTLTITGVQAEDEAVYFCGSEDSSTDAIFGAGTTLTVL
